Test [1] deals with Mitogen-activated protein kinase 8 (Homo sapiens, UniProt P45983). The test is described as follows: Inhibition of human recombinant histidine-tagged full-length JNK1 expressed in insect cells activated by GST-tagged MAP2K7 using ATF2 as substrate after 1 hr by luminescence plate reader analysis.
The target of test [2] is Cyclin-dependent kinase 8 (Homo sapiens) (UniProt P49336). The test is described as follows: Inhibition of CDK8 in human PC3 cell lysates at 10 uM using desthiobiotin-tagged ATP probe AX9989 followed by trypsinization by LC/MS analysis. The settings on record: PC-3.
Test [3] has as its target Serine/threonine-protein kinase MARK2 (Homo sapiens) (UniProt Q7KZI7). The test is described as follows: Inhibition of MARK2 in human PC3 cell lysates at 10 uM using desthiobiotin-tagged ATP probe AX9989 followed by trypsinization by LC/MS analysis. The settings on record: PC-3.
Test [4] concerns the target Mitogen-activated protein kinase 1 (Homo sapiens) (UniProt P28482). Description: Inhibition of Erk2 in human PC3 cell lysates at 10 uM using desthiobiotin-tagged ATP probe AX9989 followed by trypsinization by LC/MS analysis. As to conditions: PC-3.
Test [5] addresses eIF-2-alpha kinase GCN2 (Homo sapiens) (UniProt Q9P2K8). Description: Inhibition of GCN2 in human PC3 cell lysates at 10 uM using desthiobiotin-tagged ATP probe AX9989 followed by trypsinization by LC/MS analysis. The settings on record: PC-3.
In test [6] the target is Mitogen-activated protein kinase 11 (Homo sapiens) (UniProt Q15759). Description: Inhibition of p38beta in human PC3 cell lysates at 10 uM using desthiobiotin-tagged ATP probe AX9989 followed by trypsinization by LC/MS analysis. As to conditions: PC-3.
Test [7] concerns the target Phosphatidylinositol 4,5-bisphosphate 3-kinase catalytic subunit beta isoform (Homo sapiens) (UniProt P42338). The test is described as follows: Inhibition of PIK3CB in human PC3 cell lysates at 10 uM using desthiobiotin-tagged ATP probe AX9989 followed by trypsinization by LC/MS analysis. The settings on record: PC-3.
For test [8], the target named is Rho-associated protein kinase 1 (Homo sapiens) (UniProt Q13464). The test is described as follows: Inhibition of ROCK1 in human PC3 cell lysates at 10 uM using desthiobiotin-tagged ATP probe AX9989 followed by trypsinization by LC/MS analysis. As to conditions: PC-3.
In test [9] the target is T1, SNF-related serine/threonine-protein kinase (Homo sapiens) (UniProt Q9NRH2).
T1 sequence (whole entry): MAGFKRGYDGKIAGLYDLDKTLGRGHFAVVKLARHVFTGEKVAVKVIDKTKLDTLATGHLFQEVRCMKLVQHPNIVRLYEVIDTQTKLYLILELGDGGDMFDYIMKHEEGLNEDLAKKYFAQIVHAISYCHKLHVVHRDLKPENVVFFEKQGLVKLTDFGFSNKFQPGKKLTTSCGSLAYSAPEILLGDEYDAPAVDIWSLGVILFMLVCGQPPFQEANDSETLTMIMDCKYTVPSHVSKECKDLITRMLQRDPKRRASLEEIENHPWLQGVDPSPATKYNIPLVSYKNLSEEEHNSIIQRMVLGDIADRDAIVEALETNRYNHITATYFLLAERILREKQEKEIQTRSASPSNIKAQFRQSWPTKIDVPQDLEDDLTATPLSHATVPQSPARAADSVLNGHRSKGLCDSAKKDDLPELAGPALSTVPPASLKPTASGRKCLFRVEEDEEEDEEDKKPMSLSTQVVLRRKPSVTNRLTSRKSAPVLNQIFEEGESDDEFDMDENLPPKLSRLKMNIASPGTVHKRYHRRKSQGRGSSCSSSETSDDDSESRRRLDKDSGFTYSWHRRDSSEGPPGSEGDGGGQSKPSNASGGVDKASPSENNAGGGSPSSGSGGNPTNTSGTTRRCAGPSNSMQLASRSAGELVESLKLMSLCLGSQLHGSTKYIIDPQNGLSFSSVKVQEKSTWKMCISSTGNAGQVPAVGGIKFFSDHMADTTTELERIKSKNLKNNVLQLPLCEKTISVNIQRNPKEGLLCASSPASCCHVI
Description: Inhibition of SNRK in human PC3 cell lysates at 10 uM using desthiobiotin-tagged ATP probe AX9989 followed by trypsinization by LC/MS analysis. The settings on record: PC-3.

In test [10] the target is Dual specificity protein kinase CLK2 (Homo sapiens) (UniProt P49760). The test is described as follows: Inhibition of CLK2 in human PC3 cell lysates at 10 uM using desthiobiotin-tagged ATP probe AX9989 followed by trypsinization by LC/MS analysis. The settings on record: PC-3.
Test [11] has as its target Serine/threonine-protein kinase 16 (Homo sapiens) (UniProt O75716). Description: Inhibition of MPSK1 in human PC3 cell lysates at 10 uM using desthiobiotin-tagged ATP probe AX9989 followed by trypsinization by LC/MS analysis. As to conditions: PC-3.
Another test has as its system PC-3. The test is described as follows: Inhibition of ZC1/HGK/ZC2/TNIK/ZC3/MINK in human PC3 cell lysates at 10 uM using desthiobiotin-tagged ATP probe AX9989 followed by trypsinization by LC/MS analysis. The format is cell-free.
Test [12] has as its target SRSF protein kinase 1 (Homo sapiens) (UniProt Q96SB4). The test is described as follows: Inhibition of SRPK1 in human PC3 cell lysates at 10 uM using desthiobiotin-tagged ATP probe AX9989 followed by trypsinization by LC/MS analysis. The settings on record: PC-3.
Test [13] deals with Epidermal growth factor receptor (Homo sapiens) (UniProt P00533). Description: Inhibition of EGFR in human PC3 cell lysates at 10 uM using desthiobiotin-tagged ATP probe AX9989 followed by trypsinization by LC/MS analysis. The settings on record: PC-3.
The target in test [14] is Proto-oncogene tyrosine-protein kinase Src (Homo sapiens) (UniProt P12931). Description: Inhibition of SRC in human PC3 cell lysates at 10 uM using desthiobiotin-tagged ATP probe AX9989 followed by trypsinization by LC/MS analysis. The settings on record: PC-3.
The target in test [15] is Mitogen-activated protein kinase kinase kinase 4 (Homo sapiens) (UniProt Q9Y6R4). The test is described as follows: Inhibition of MAP3K4 in human PC3 cell lysates at 10 uM using desthiobiotin-tagged ATP probe AX9989 followed by trypsinization by LC/MS analysis. As to conditions: PC-3.

Where only a bound is given, the exact number is not on record here.

In general, IC50 refers to the concentration needed to halve the response being measured. What is called inhibition is the relative decrease from the control value, in per cent.

Epidermal growth factor receptor (Homo sapiens), sequence (P00533 whole entry): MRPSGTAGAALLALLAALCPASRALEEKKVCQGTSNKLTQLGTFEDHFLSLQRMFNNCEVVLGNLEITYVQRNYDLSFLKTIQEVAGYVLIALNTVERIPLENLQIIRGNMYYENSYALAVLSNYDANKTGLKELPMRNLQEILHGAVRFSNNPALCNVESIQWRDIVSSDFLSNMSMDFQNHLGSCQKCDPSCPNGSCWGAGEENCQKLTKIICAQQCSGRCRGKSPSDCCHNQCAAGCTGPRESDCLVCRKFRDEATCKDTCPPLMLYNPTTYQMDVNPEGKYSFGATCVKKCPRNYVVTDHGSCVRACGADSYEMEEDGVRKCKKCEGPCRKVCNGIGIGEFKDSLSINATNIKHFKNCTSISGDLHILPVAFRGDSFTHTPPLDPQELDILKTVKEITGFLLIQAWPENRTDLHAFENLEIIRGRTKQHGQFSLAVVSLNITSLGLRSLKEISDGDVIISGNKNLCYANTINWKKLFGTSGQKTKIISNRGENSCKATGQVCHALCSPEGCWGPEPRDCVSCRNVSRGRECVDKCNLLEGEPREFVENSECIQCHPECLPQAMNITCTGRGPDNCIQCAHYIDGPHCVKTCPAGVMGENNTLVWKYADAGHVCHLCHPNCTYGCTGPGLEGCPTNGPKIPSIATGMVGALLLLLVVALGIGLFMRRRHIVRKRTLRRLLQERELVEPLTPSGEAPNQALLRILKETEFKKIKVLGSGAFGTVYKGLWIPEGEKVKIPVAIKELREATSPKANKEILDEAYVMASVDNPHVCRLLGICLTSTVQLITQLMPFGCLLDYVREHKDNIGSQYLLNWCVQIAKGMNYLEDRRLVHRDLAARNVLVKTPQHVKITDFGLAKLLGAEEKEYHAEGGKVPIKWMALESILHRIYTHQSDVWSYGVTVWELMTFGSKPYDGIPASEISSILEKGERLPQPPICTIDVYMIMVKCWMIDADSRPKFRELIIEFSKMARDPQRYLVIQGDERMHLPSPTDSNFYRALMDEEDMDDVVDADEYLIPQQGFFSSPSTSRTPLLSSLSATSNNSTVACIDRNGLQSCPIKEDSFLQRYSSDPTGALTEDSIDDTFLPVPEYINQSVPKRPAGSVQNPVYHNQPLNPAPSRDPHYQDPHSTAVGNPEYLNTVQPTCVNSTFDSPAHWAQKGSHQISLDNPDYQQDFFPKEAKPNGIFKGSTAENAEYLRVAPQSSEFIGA
SRSF protein kinase 1 (Homo sapiens), sequence (Q96SB4 whole entry): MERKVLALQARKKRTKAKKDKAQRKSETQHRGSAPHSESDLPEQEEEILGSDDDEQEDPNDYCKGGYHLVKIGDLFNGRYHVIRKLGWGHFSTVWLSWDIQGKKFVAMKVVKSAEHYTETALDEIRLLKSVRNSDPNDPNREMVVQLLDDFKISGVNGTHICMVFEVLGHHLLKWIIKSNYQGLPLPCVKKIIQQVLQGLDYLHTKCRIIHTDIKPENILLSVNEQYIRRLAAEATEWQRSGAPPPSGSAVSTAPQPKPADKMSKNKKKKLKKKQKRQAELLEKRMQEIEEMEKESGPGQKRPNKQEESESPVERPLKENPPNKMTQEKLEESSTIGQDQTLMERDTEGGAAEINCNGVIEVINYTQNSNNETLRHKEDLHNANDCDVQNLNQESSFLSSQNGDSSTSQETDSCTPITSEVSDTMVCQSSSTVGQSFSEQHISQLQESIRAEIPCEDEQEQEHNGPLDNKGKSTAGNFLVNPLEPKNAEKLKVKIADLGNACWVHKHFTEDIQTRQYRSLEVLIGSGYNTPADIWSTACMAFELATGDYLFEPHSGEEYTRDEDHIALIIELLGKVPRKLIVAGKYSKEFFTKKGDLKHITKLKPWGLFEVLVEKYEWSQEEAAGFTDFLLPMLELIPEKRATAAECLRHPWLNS
Mitogen-activated protein kinase 11 (Homo sapiens), sequence (Q15759 whole entry, canonical isoform): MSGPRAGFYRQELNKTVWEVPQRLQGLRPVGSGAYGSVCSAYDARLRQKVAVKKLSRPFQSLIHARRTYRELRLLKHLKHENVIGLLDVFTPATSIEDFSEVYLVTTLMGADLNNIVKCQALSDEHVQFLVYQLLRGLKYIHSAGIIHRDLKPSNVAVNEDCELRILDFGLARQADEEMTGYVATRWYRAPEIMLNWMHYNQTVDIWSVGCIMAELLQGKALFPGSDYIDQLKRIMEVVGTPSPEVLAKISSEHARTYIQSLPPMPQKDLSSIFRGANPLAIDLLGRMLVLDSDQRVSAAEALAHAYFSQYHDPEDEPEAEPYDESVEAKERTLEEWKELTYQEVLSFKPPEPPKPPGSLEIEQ
eIF-2-alpha kinase GCN2 (Homo sapiens), sequence (Q9P2K8 whole entry): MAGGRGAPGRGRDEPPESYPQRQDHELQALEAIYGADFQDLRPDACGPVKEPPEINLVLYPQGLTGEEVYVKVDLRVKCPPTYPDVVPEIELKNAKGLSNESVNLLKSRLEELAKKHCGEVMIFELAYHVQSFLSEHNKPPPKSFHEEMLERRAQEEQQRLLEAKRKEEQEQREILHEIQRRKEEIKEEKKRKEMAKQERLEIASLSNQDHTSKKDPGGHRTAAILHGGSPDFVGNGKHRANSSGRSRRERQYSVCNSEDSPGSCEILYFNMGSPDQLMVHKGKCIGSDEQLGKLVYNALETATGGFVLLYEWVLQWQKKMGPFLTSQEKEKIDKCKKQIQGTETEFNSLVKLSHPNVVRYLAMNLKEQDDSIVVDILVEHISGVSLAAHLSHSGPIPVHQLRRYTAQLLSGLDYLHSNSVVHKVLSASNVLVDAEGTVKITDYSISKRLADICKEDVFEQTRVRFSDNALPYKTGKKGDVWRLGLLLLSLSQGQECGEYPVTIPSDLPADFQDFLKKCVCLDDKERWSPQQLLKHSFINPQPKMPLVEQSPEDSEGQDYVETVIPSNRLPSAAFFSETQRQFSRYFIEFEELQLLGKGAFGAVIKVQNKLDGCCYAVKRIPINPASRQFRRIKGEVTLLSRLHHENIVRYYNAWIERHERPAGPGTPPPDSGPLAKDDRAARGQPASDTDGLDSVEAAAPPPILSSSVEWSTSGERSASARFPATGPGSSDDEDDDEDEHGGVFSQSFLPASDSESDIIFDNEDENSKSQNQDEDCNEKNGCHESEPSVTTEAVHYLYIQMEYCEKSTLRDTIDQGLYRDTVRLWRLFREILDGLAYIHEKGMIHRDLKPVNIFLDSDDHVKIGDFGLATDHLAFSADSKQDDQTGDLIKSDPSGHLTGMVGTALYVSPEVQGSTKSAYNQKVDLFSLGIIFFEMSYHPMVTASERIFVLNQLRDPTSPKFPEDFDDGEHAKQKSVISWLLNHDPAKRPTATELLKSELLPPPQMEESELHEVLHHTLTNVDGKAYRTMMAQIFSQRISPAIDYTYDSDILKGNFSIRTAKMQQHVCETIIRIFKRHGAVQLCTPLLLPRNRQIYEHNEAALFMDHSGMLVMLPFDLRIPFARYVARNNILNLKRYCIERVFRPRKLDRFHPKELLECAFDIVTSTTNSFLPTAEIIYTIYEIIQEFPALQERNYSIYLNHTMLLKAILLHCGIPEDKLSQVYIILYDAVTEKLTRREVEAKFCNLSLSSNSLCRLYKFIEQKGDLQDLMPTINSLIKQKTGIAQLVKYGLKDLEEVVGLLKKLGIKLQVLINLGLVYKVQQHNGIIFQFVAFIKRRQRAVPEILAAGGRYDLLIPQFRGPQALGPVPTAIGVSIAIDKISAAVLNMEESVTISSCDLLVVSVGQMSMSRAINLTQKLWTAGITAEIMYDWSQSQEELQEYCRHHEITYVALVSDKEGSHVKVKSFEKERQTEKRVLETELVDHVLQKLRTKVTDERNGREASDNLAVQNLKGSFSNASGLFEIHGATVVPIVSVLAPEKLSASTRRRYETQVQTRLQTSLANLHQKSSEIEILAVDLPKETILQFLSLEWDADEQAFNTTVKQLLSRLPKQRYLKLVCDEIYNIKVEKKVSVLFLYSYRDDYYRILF
Cyclin-dependent kinase 8 (Homo sapiens), sequence (P49336 whole entry): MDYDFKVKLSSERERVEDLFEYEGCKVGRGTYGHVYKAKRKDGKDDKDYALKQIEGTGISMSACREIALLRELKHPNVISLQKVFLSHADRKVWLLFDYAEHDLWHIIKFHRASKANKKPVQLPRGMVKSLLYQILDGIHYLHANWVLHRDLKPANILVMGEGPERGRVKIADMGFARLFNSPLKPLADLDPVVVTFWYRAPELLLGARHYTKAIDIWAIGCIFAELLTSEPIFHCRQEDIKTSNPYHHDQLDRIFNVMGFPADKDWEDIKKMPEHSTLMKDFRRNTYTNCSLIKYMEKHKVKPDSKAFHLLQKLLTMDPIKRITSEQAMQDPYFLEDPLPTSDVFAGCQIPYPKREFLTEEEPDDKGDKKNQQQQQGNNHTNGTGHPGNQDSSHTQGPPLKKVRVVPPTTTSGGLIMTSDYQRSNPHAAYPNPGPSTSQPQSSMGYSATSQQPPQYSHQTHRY
Dual specificity protein kinase CLK2 (Homo sapiens), sequence (P49760 whole entry, looked up): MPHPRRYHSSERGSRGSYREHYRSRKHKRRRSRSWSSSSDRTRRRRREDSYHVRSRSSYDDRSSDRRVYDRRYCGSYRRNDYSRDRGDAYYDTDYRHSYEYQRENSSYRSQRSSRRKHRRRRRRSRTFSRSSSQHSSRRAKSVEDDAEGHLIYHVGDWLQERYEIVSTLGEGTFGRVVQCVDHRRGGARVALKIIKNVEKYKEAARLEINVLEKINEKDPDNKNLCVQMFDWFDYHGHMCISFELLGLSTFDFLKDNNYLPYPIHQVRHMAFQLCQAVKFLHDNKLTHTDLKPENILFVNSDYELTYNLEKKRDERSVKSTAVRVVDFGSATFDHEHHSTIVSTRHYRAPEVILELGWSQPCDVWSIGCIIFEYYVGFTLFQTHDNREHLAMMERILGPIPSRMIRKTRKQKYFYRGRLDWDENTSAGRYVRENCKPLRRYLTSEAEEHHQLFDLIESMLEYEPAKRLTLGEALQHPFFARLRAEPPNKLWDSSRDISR

On to `CC[C@@H](NC(=O)c1ccc2nc(N[C@H]3CC[C@H](O)CC3)c3nccn3c2c1)c1ccccc1`, for which, in test [1], the IC50 amounted to 140 nM. Besides, the inhibition was below 35% in test [2]; below 35% in test [3]; below 35% in test [4]; 38.5% in test [5]; below 35% in test [6]; below 35% in test [7]. Moreover, the inhibition (in test [8]; in test [9]; in test [10]; in [11]; in the test on PC-3; in [12]) was below 35% in each case. The inhibition in test [13], in test [14] and in test [15] was below 35% in each case.
With `O[C@H]1CC[C@H](Nc2nc3ccccc3n3ccnc23)CC1`, the IC50 in test [1] came out at 910 nM.
On to `c1ccc(CNc2nc3ccccc3n3ccnc23)cc1`, for which the 50% inhibitory concentration (IC50) in test [1] is 8400 nM.
Consider `O=C(N[C@H](CO)c1ccccc1)c1ccc2nc(N[C@H]3CC[C@H](O)CC3)c3nccn3c2c1`, for which the half-maximal inhibitory concentration (IC50) in test [1] came out at 160 nM. The inhibition in [2] was below 35%; in test [3], below 35%; in [4], below 35%; in test [5], 56.4%; in [6], below 35%; in test [7] it was below 35%. The inhibition (in test [8]; in [9]; in test [10]; in [11]; with PC-3; in test [12]) was below 35% throughout. Besides, the inhibition in test [13], in test [14] and in test [15] was below 35% in each case.
For the compound `O=C(NC1(c2ccccc2)CCC1)c1ccc2nc(N[C@H]3CC[C@H](O)CC3)c3nccn3c2c1`, the IC50 in test [1] worked out at 77 nM. In addition, the inhibition in [2], in test [3], in [4], in test [5], in test [6] and in [7] was below 35% throughout. Moreover, the inhibition (in test [8]; in test [9]; in test [10]; in test [11]; in the test with PC-3; in [12]) was below 35% throughout. The inhibition in [13], in test [14] and in test [15] was below 35% throughout.
Take `CCC[C@@H](NC(=O)c1ccc2nc(N[C@H]3CC[C@H](O)CC3)c3nccn3c2c1)c1ccccc1`: the IC50 in [1] stood at 200 nM. For the same compound, the inhibition in [2], in test [3], in test [4], in test [5], in [6] and in [7] was below 35% in each case. The inhibition (in test [8]; in [9]; in test [10]; in [11]; in the test with PC-3; in test [12]) was below 35% throughout. Besides, the inhibition in [13], in test [14] and in test [15] was below 35% each time.
Consider `CC(C)(NC(=O)c1ccc2nc(N[C@H]3CC[C@H](O)CC3)c3nccn3c2c1)c1ccccc1`, for which, in test [1], the IC50 is 270 nM. The inhibition in test [2], in test [3], in test [4], in test [5], in test [6] and in test [7] was below 35% in each case. Also, the inhibition (in test [8]; in test [9]; in test [10]; in test [11]; with PC-3; in test [12]) was below 35% throughout. The inhibition in [13], in [14] and in test [15] was below 35% throughout.
On to `O=C(O)c1ccc2nc(N[C@H]3CC[C@H](O)CC3)c3nccn3c2c1`, for which the IC50 in [1] amounted to 310 nM. Besides, the inhibition is below 35% in test [2]; below 35% in test [3]; below 35% in test [4]; 41.7% in [5]; below 35% in test [6]; 37.1% in [7]. Besides, the inhibition in [8] is below 35%; in [9] it was below 35%; in [10], below 35%; in test [11], 48.9%; with PC-3 it was below 35%; in test [12], below 35%. In addition, the inhibition in test [13], in test [14] and in test [15] was below 35% throughout.
Consider `O=C(NC1(c2ccccc2)CC1)c1ccc2nc(N[C@H]3CC[C@H](O)CC3)c3nccn3c2c1`, for which, in [1], the IC50 was 92 nM. Also, the inhibition in test [2], in [3], in [4], in test [5], in test [6] and in test [7] was below 35% throughout. Besides, the inhibition (in [8]; in test [9]; in test [10]; in test [11]; in the test with PC-3; in test [12]) was below 35% in each case. The inhibition in test [13], in test [14] and in test [15] was below 35% throughout.
`c1ccc2c(c1)nc(NC1CCCCC1)c1nccn12`: the IC50 in [1] amounted to 1600 nM.
With `O=C(NC1(Cc2ccc(F)cc2)CC1)c1ccc2nc(N[C@H]3CC[C@H](O)CC3)c3nccn3c2c1`, the inhibition in test [2], in test [3], in [4], in [5], in [6] and in [7] was below 35% in each case. Also, the inhibition (in test [8]; in test [9]; in [10]; in test [11]; with PC-3; in [12]) was below 35% each time. Also, the inhibition in test [13], in test [14] and in test [15] was below 35% in each case.
`c1ccc(CCNc2nc3ccccc3n3ccnc23)cc1`: the IC50 in test [1] worked out at 6700 nM.
